Measurements taken from patent US10793892B2, “Method for detecting the presence of expanded spectrum β-lactamase-producing bacteria in a sample” (INSERM (INSTITUT NATIONAL DE LA SANTE ET DE LA RECHERCHE …, priority 2011, dated 2020).

How the values were obtained:
E. aerogenes [1] = assay: Susceptibility testing, MIC by Etest; format: cell-based, Enterobacter aerogenes
Protocol: (§1) Susceptibility testing was performed by determining MIC values using the Etest® (AB bioMérieux; Solna, Sweden) on Mueller-Hinton agar plates at 37° C. and results were recorded according to US guidelines (CLSI), as updated in 2012 (2). The breakpoints for cefotaxime are susceptible (S)≤1 and resistant (R)≥4 μg/ml, and for ceftazidime S≤4 and R≥16 μg/ml.

M. morganii [2] = assay: ESBL NDP test using spiked blood cultures; format: biochemical, Morganella morganii; set-up: key: (+) and (−) referred to color change being, red to yellow or unchanged, respectively; (+) and (−) referred to color change being, red to yellow or unchanged, respectively
Protocol: (§2) Strains were isolated on Mueller-Hinton agar (Biorad, Marnes-la-Coquette, France) and incubated at 37° C. for 16 h to 24 h before performing the NDP rapid ESBL test as follows. One calibrated inoculated loop (10 μl) of the tested strain was resuspended in 150 μl of 20 mM Tris-HCl lysis buffer previously distributed in Microbead tubes (Ultraclean Microbial DNA isolation kit Bead Tubes, MO BIO Laboratories, Carlsbad, USA). Mechanical lysis of bacteria was performed by strong agitation of Microbead tubes using a vortex adapter (MO BIO Laboratories) for 30 min at room temperature. This bacterial suspension was centrifuged at 10,000×g at room temperature for 5 min. Thirty μl of the supernatant was mixed in a well of a 96-well tray with 100 μl of a 1 ml solution made of 3 mg of purified cefotaxime sodium salt (Sigma-Aldrich, Saint-Quentin-Fallavier, France) in a pH 7.8 phenol red solution. […]. […] Similarly, culture extracts were analyzed in wells containing cefotaxime and tazobactam (4 mg/ml). […]
(§3) Rapid detection of ESBL producers was attempted from spiked blood cultures which positivity was assessed using the BactAlert blood culture system (bioMérieux). […] Spiked blood cultures were made of 1×10^3 CFU of each strain and incubated 24 to 48 h before a positivity of the blood culture was detected by the BactAlert system. […]

E. aerogenes [3] = assay: ESBL NDP test using cultured strains; format: biochemical, Enterobacter aerogenes; set-up: key: (+) and (−) referred to color change being, red to yellow or unchanged, respectively; (+) and (−) referred to color change being, red to yellow or unchanged, respectively
Protocol: (§4) Strains were isolated on Mueller-Hinton agar (Biorad, Marnes-la-Coquette, France) and incubated at 37° C. for 16 h to 24 h before performing the NDP rapid ESBL test as follows. One calibrated inoculated loop (10 μl) of the tested strain was resuspended in 150 μl of 20 mM Tris-HCl lysis buffer previously distributed in Microbead tubes (Ultraclean Microbial DNA isolation kit Bead Tubes, MO BIO Laboratories, Carlsbad, USA). Mechanical lysis of bacteria was performed by strong agitation of Microbead tubes using a vortex adapter (MO BIO Laboratories) for 30 min at room temperature. This bacterial suspension was centrifuged at 10,000×g at room temperature for 5 min. Thirty μl of the supernatant was mixed in a well of a 96-well tray with 100 μl of a 1 ml solution made of 3 mg of purified cefotaxime sodium salt (Sigma-Aldrich, Saint-Quentin-Fallavier, France) in a pH 7.8 phenol red solution. […]. The phenol red solution was made by taking 2 ml of a concentrated pH 8 phenol solution (made from a mixture of phenol red 0.5% in distilled water) to which 16.6 ml of distilled water was added. The pH value was then adjusted to a 7.8 value by adding drops of a 1 N NaOH solution. Mixture of the phenol red solution and the enzymatic suspension being tested was incubated at 37° C. for 30 min. Similarly, culture extracts were analyzed in wells containing cefotaxime and tazobactam (4 mg/ml). Other concentrations of tazobactam and other ß-lactamase inhibitors were tested giving less clear results (data not shown). […] This definition of test positivity will be applied throughout the study.

C. freundii = assay: ESBL NDP test using cultured strains; format: biochemical, Citrobacter freundii; set-up: key: (+) and (−) referred to color change being, red to yellow or unchanged, respectively; (+) and (−) referred to color change being, red to yellow or unchanged, respectively
Protocol: as §4

S. thyphimurium = assay: ESBL NDP test using spiked blood cultures; format: biochemical; set-up: key: (+) and (−) referred to color change being, red to yellow or unchanged, respectively; (+) and (−) referred to color change being, red to yellow or unchanged, respectively; conditions: S. thyphimurium 10.81, CTX-M-1
Protocol: as §2, §3

S. ficaria = assay: ESBL NDP test using spiked blood cultures; format: biochemical; set-up: key: (+) and (−) referred to color change being, red to yellow or unchanged, respectively; (+) and (−) referred to color change being, red to yellow or unchanged, respectively; conditions: S. ficaria CIP 104255, Wild-type
Protocol: as §2, §3

M. morganii [4] = assay: ESBL NDP test using cultured strains; format: biochemical, Morganella morganii; set-up: key: (+) and (−) referred to color change being, red to yellow or unchanged, respectively; (+) and (−) referred to color change being, red to yellow or unchanged, respectively
Protocol: as §4

S. enterica = assay: Susceptibility testing, MIC by Etest; format: cell-based, Salmonella enterica
Protocol: as §1

K. pneumoniae = assay: Susceptibility testing, MIC by Etest; format: cell-based, Klebsiella pneumoniae
Protocol: as §1

K. oxytoca = assay: ESBL NDP test using cultured strains; format: biochemical, Klebsiella oxytoca; set-up: key: (+) and (−) referred to color change being, red to yellow or unchanged, respectively; (+) and (−) referred to color change being, red to yellow or unchanged, respectively; conditions: K. oxytoca Wild-type penicillinase, n=1
Protocol: Strains were isolated on Mueller-Hinton agar (Biorad, Marnes-la-Coquette, France) and incubated at 37° C. for 16 h to 24 h before performing the NDP rapid ESBL test as follows. One calibrated inoculated loop (10 μl) of the tested strain was resuspended in 150 μl of 20 mM Tris-HCl lysis buffer previously distributed in Microbead tubes (Ultraclean Microbial DNA isolation kit Bead Tubes, MO BIO Laboratories, Carlsbad, USA). Mechanical lysis of bacteria was performed by strong agitation of Microbead tubes using a vortex adapter (MO BIO Laboratories) for 30 min at room temperature. This bacterial suspension was centrifuged at 10,000×g at room temperature for 5 min. Thirty μl of the supernatant was mixed in a well of a 96-well tray with 100 μl of a 1 ml solution made of 3 mg of purified cefotaxime sodium salt (Sigma-Aldrich, Saint-Quentin-Fallavier, France) in a pH 7.8 phenol red solution. […]. The phenol red solution was made by taking 2 ml of a concentrated pH 8 phenol solution (made from a mixture of phenol red 0.5% in distilled water) to which 16.6 ml of distilled water was added. The pH value was then adjusted to a 7.8 value by adding drops of a 1 N NaOH solution. Mixture of the phenol red solution and the enzymatic suspension being tested was incubated at 37° C. for 30 min. Similarly, culture extracts were analyzed in wells containing cefotaxime and tazobactam (4 mg/ml). […]

[5] = E. aerogenes Wild-type, chromosome-encoded cephalosporinase, n=1
[6] = M. morganii BG 1106 5902, Wild-type
[7] = M. morganii BG 1117 0617, Wild-type

In the case of `CO/N=C(\C(=O)N[C@@H]1C(=O)N2C(C(=O)O)=C(COC(C)=O)CS[C@H]12)c1csc(N)n1` [CTX, cefotaxime], the MICs range (E. aerogenes [1]; E. aerogenes TEM-24, n=6) is reported as 0.5 to 8 µg/mL, the MICs range (E. aerogenes [1]; E. aerogenes TEM-121, n=1) is reported as <0.06 µg/mL and the MICs range (E. aerogenes [1]; [5]) is reported as 0.094 µg/mL. The “ESBL NDP Test from: Blood culture” value (M. morganii [2]; [6]) was “−”, the “ESBL NDP Test from: Blood culture” value (M. morganii [2]; [7]) was “−” and the “ESBL NDP Test from: Colonies” value (E. aerogenes [3]; E. aerogenes BN 1113 0225, Wild-type) was “−”. For the same compound, the “ESBL NDP Test from: Colonies” value (E. aerogenes [3]; E. aerogenes E2O15, TEM-121) was “−”, the “Test (color change)” value (E. aerogenes [3]; E. aerogenes TEM-24, n=6) was “−” and the “Test (color change)” value (E. aerogenes [3]; E. aerogenes TEM-121, n=1) was “−”. The “Test (color change)” value (E. aerogenes [3]; [5]) was “−”, the “ESBL NDP Test from: Colonies” value (C. freundii; C. freundii BG 1106 7767, Wild-type) was “−” and the “Test (color change)” value (C. freundii; C. freundii CTX-M-15, n=3) was “+”. The “Test (color change)” value (C. freundii; C. freundii TEM-3, n=1) was “+”, the “Test (color change)” value (C. freundii; C. freundii Wild-type, chromosome-encoded cephalosporinase, n=1) was “−” and the “ESBL NDP Test from: Blood culture” value (S. thyphimurium) was “+”. The “ESBL NDP Test from: Blood culture” value (S. ficaria) was “−”, the “ESBL NDP Test from: Colonies” value (M. morganii [4]; [6]) was “−” and the “ESBL NDP Test from: Colonies” value (M. morganii [4]; [7]) was “−”. For the same compound, the “Test (color change)” value (M. morganii [4]; M. morganii Wild-type, chromosome-encoded cephalosporinase, n=2) was “−”, the MICs range (S. enterica; S. enterica CTX-M-1, n=1) was >16 µg/mL and the MICs range (S. enterica; S. enterica Wild-type, no resistance, n=1) was 0.05 µg/mL. For the same compound, the MICs range (K. pneumoniae; K. pneumoniae CTX-M-3, n=1) was >16 µg/mL, the MICs range (K. pneumoniae; K. pneumoniae CTX-M-14, n=3) was >16 µg/mL and the MICs range (K. pneumoniae; K. pneumoniae CTX-M-15, n=28) was >16 µg/mL. For the same compound, the MICs range (K. pneumoniae; K. pneumoniae DHA-1, n=1) was >16 µg/mL, the MICs range (K. pneumoniae; K. pneumoniae DHA-2, n=1) was >16 µg/mL and the MICs range (K. pneumoniae; K. pneumoniae GES-1, n=1) was 0.5 µg/mL. The MICs range (K. pneumoniae; K. pneumoniae SHV-2a, n=2) was 1 µg/mL, the MICs range (K. pneumoniae; K. pneumoniae SHV-5, n=2) was >16 µg/mL and the MICs range (K. pneumoniae; K. pneumoniae SHV-12, n=1) was 1 µg/mL. The MICs range (K. pneumoniae; K. pneumoniae SHV-12, n=2) was 2 to 8 µg/mL, the MICs range (K. pneumoniae; K. pneumoniae SHV-28, n=3) was >16 µg/mL and the MICs range (K. pneumoniae; K. pneumoniae TEM-52, n=2) was >16 µg/mL. For the same compound, the MICs range (K. pneumoniae; K. pneumoniae Wild-type penicillinase, n=2) was 0.02 to 0.03 µg/mL and the “Test (color change)” value (K. oxytoca) was “−”.
